Laboratory results: the supplement of paper PMC9663587

Assays:
[1] = compound: CCN1CCN(Cc2ccc(Nc3ncc(F)c(-c4cc(F)c5nc(C)n(C(C)C)c5c4)n3)nc2)CC1; test: increase in dead-cell fraction, 72 h; higher = more death;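 further: breast cancer cell lines in 384-well plates, stained with Hoechst plus LIVE/DEAD far red dye and imaged, cells above an LDR intensity threshold counted dead, Hoechst-negative corpses included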
[2] = compound: T1, CN1CC[C@H](c2c(O)cc(O)c3c(=O)cc(-c4ccccc4Cl)oc23)[C@H](O)C1 [Flavopiridol]; test: as above
[3] = compound: CN(C)C(=O)c1cc2cnc(Nc3ccc(N4CCNCC4)cn3)nc2n1C1CCCC1 [LEE011/Ribociclib]; test: GR value, 72 h; higher = faster growth (1 = untreated, <0 = killing);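 further: breast cancer and non-malignant breast epithelial lines, nine half-log doses, viable cells counted by Hoechst and LIVE/DEAD dye imaging versus time-zero plates and DMSO controls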
[4] = compound: CCN1CCN(Cc2ccc(Nc3ncc(F)c(-c4cc(F)c5nc(C)n(C(C)C)c5c4)n3)nc2)CC1; test: as above
[5] = compound: CCc1cnn2c(NCc3ccc[n+]([O-])c3)cc(N3CCCC[C@H]3CCO)nc12; test: as above
[6] = compound: T1, Flavopiridol; test: as above
[7] = compound: CC(=O)c1c(C)c2cnc(Nc3ccc(N4CCNCC4)cn3)nc2n(C2CCCC2)c1=O; test: as above
[8] = compound: CN(C)C/C=C/C(=O)Nc1ccc(C(=O)Nc2cccc(Nc3ncc(Cl)c(-c4c[nH]c5ccccc45)n3)c2)cc1 [THZ1]; test: as above
[9] = compound: CN(C)C/C=C/C(=O)Nc1ccc(C(=O)N2CCC[C@@H](Nc3ncc(Cl)c(-c4c[nH]c5ccccc45)n3)C2)cc1 [THZ531]; test: as above
[10] = compound: CC(=O)c1c(C)c2cnc(Nc3ccc(N4CCN(CCOCCOCCOCCNC(=O)COc5cccc6c5C(=O)N(C5CCC(=O)NC5=O)C6=O)CC4)cn3)nc2n(C2CCCC2)c1=O [BSJ-03-123]; test: as above
[11] = compound: CCOc1cc2ncc(C#N)c(Nc3ccc(OCc4ccccn4)c(Cl)c3)c2cc1NC(=O)/C=C/CN(C)C [Neratinib/HKI272]; test: as above
[12] = compound: C=CC(=O)Nc1ccc(C(=O)Nc2[nH]nc3c2CN(C(=O)N[C@H](CN(C)C)c2ccccc2)C3(C)C)cc1 [YKL-5-124]; test: as above

Q: With SKBR3 as the cell line, how does the “increase in dead-cell fraction” value ([1]; 0.001 µM) read?
A: 0.0059

Q: And the “increase in dead-cell fraction” value ([1]; 0.003162 µM)?
A: 0.003

Q: And the “increase in dead-cell fraction” value ([1]; 0.01 µM)?
A: 0.0233

Q: And the “increase in dead-cell fraction” value ([1]; 0.03162 µM)?
A: 0.0346

Q: What about the “increase in dead-cell fraction” value ([1]; 0.1 µM) of the same cell line?
A: 0.0399

Q: What about the “increase in dead-cell fraction” value ([1]; 0.3162 µM) of the same cell line?
A: 0.0362

Q: What about the “increase in dead-cell fraction” value ([1]; 1 µM) of the same cell line?
A: 0.0582

Q: What about the “increase in dead-cell fraction” value ([1]; 3.162 µM) of the same cell line?
A: 0.0358

Q: What about the “increase in dead-cell fraction” value ([1]; 10 µM) of the same cell line?
A: 0.0879

Q: And the “increase in dead-cell fraction” value ([2]; 0.0001 µM)?
A: -0.0025

Q: What about the “increase in dead-cell fraction” value ([2]; 0.0003162 µM) of the same cell line?
A: -0.0004

Q: What about the “increase in dead-cell fraction” value ([2]; 0.001 µM) of the same cell line?
A: 0.0053

Q: And the “increase in dead-cell fraction” value ([2]; 0.003162 µM)?
A: -0.001

Q: And the “increase in dead-cell fraction” value ([2]; 0.01 µM)?
A: -0.0038

Q: What about the “increase in dead-cell fraction” value ([2]; 0.03162 µM) of the same cell line?
A: -0.0082

Q: What about the “increase in dead-cell fraction” value ([2]; 0.1 µM) of the same cell line?
A: 0.0051

Q: And the “increase in dead-cell fraction” value ([2]; 0.3162 µM)?
A: 0.0663

Q: And the “increase in dead-cell fraction” value ([2]; 1 µM)?
A: 0.417

Q: What about the GR value ([3]; 0.001 µM) of the same cell line?
A: 0.897 GR

Q: What about the GR value ([3]; 0.003162 µM) of the same cell line?
A: 0.728 GR

Q: And the GR value ([3]; 0.01 µM)?
A: 0.774 GR

Q: What about the GR value ([3]; 0.03162 µM) of the same cell line?
A: 0.766 GR

Q: And the GR value ([3]; 0.1 µM)?
A: 0.776 GR

Q: And the GR value ([3]; 0.3162 µM)?
A: 0.471 GR

Q: What about the GR value ([3]; 1 µM) of the same cell line?
A: 0.582 GR

Q: What about the GR value ([3]; 3.162 µM) of the same cell line?
A: 0.429 GR

Q: What about the GR value ([3]; 10 µM) of the same cell line?
A: 0.586 GR

Q: And the GR value ([4]; 0.001 µM)?
A: 0.874 GR

Q: And the GR value ([4]; 0.003162 µM)?
A: 0.866 GR

Q: And the GR value ([4]; 0.01 µM)?
A: 0.623 GR

Q: What about the GR value ([4]; 0.03162 µM) of the same cell line?
A: 0.491 GR

Q: What about the GR value ([4]; 0.1 µM) of the same cell line?
A: 0.402 GR

Q: And the GR value ([4]; 0.3162 µM)?
A: 0.337 GR

Q: What about the GR value ([4]; 1 µM) of the same cell line?
A: 0.24 GR

Q: What about the GR value ([4]; 3.162 µM) of the same cell line?
A: 0.27 GR

Q: What about the GR value ([4]; 10 µM) of the same cell line?
A: 0.151 GR

Q: What about the GR value ([5]; 0.0001 µM) of the same cell line?
A: 0.95 GR

Q: And the GR value ([5]; 0.0003162 µM)?
A: 0.921 GR

Q: And the GR value ([5]; 0.001 µM)?
A: 1.07 GR

Q: What about the GR value ([5]; 0.003162 µM) of the same cell line?
A: 0.933 GR

Q: What about the GR value ([5]; 0.01 µM) of the same cell line?
A: 0.0102 GR

Q: And the GR value ([5]; 0.03162 µM)?
A: -0.581 GR

Q: And the GR value ([5]; 0.1 µM)?
A: -0.6 GR

Q: And the GR value ([5]; 0.3162 µM)?
A: -0.628 GR

Q: And the GR value ([5]; 1 µM)?
A: -0.579 GR

Q: And the GR value ([6]; 0.0001 µM)?
A: 1.04 GR

Q: And the GR value ([6]; 0.0003162 µM)?
A: 0.989 GR

Q: And the GR value ([6]; 0.001 µM)?
A: 0.844 GR

Q: And the GR value ([6]; 0.003162 µM)?
A: 0.823 GR

Q: And the GR value ([6]; 0.01 µM)?
A: 0.823 GR

Q: And the GR value ([6]; 0.03162 µM)?
A: 0.9 GR

Q: What about the GR value ([6]; 0.1 µM) of the same cell line?
A: 0.641 GR

Q: What about the GR value ([6]; 0.3162 µM) of the same cell line?
A: -0.0615 GR

Q: What about the GR value ([6]; 1 µM) of the same cell line?
A: -0.656 GR

Q: And the GR value ([7]; 0.0003162 µM)?
A: 1.05 GR

Q: What about the GR value ([7]; 0.001 µM) of the same cell line?
A: 1.03 GR

Q: And the GR value ([7]; 0.003162 µM)?
A: 0.946 GR

Q: And the GR value ([7]; 0.01 µM)?
A: 0.845 GR

Q: And the GR value ([7]; 0.03162 µM)?
A: 0.697 GR

Q: What about the GR value ([7]; 0.1 µM) of the same cell line?
A: 0.591 GR

Q: What about the GR value ([7]; 0.3162 µM) of the same cell line?
A: 0.434 GR

Q: And the GR value ([7]; 1 µM)?
A: 0.48 GR

Q: What about the GR value ([7]; 3.162 µM) of the same cell line?
A: 0.334 GR

Q: And the GR value ([8]; 0.0001 µM)?
A: 1.08 GR

Q: And the GR value ([8]; 0.0003162 µM)?
A: 1.06 GR

Q: What about the GR value ([8]; 0.001 µM) of the same cell line?
A: 0.867 GR

Q: What about the GR value ([8]; 0.003162 µM) of the same cell line?
A: 0.854 GR

Q: What about the GR value ([8]; 0.01 µM) of the same cell line?
A: 0.743 GR

Q: And the GR value ([8]; 0.03162 µM)?
A: 0.0057 GR

Q: And the GR value ([8]; 0.1 µM)?
A: -0.515 GR

Q: And the GR value ([8]; 0.3162 µM)?
A: -0.579 GR

Q: What about the GR value ([8]; 1 µM) of the same cell line?
A: -0.789 GR

Q: What about the GR value ([9]; 0.0001 µM) of the same cell line?
A: 1.03 GR

Q: What about the GR value ([9]; 0.0003162 µM) of the same cell line?
A: 0.963 GR

Q: What about the GR value ([9]; 0.001 µM) of the same cell line?
A: 0.975 GR

Q: And the GR value ([9]; 0.003162 µM)?
A: 0.961 GR

Q: And the GR value ([9]; 0.01 µM)?
A: 1.07 GR

Q: What about the GR value ([9]; 0.03162 µM) of the same cell line?
A: 0.411 GR

Q: What about the GR value ([9]; 0.1 µM) of the same cell line?
A: -0.26 GR

Q: What about the GR value ([9]; 0.3162 µM) of the same cell line?
A: -0.481 GR

Q: What about the GR value ([9]; 1 µM) of the same cell line?
A: -0.584 GR

Q: What about the GR value ([10]; 0.001 µM) of the same cell line?
A: 0.911 GR

Q: And the GR value ([10]; 0.003162 µM)?
A: 0.855 GR

Q: And the GR value ([10]; 0.01 µM)?
A: 0.825 GR

Q: And the GR value ([10]; 0.03162 µM)?
A: 0.79 GR

Q: And the GR value ([10]; 0.1 µM)?
A: 0.644 GR

Q: And the GR value ([10]; 0.3162 µM)?
A: 0.75 GR

Q: And the GR value ([10]; 1 µM)?
A: 0.506 GR

Q: And the GR value ([10]; 3.162 µM)?
A: 0.514 GR

Q: What about the GR value ([10]; 10 µM) of the same cell line?
A: -0.35 GR

Q: And the GR value ([11]; 0.0003162 µM)?
A: 0.841 GR

Q: And the GR value ([11]; 0.001 µM)?
A: 0.631 GR

Q: And the GR value ([11]; 0.003162 µM)?
A: 0.264 GR

Q: What about the GR value ([11]; 0.01 µM) of the same cell line?
A: 0.0804 GR

Q: What about the GR value ([11]; 0.03162 µM) of the same cell line?
A: 0.0019 GR

Q: What about the GR value ([11]; 0.1 µM) of the same cell line?
A: -0.0509 GR

Q: What about the GR value ([11]; 0.3162 µM) of the same cell line?
A: -0.163 GR

Q: And the GR value ([11]; 1 µM)?
A: -0.252 GR

Q: And the GR value ([11]; 3.162 µM)?
A: -0.246 GR

Q: What about the GR value ([12]; 0.001 µM) of the same cell line?
A: 0.455 GR

Q: What about the GR value ([12]; 0.003162 µM) of the same cell line?
A: 0.198 GR

Q: And the GR value ([12]; 0.01 µM)?
A: 0.164 GR

Q: What about the GR value ([12]; 0.03162 µM) of the same cell line?
A: 0.137 GR

Q: What about the GR value ([12]; 0.1 µM) of the same cell line?
A: 0.102 GR

Q: What about the GR value ([12]; 0.3162 µM) of the same cell line?
A: -0.123 GR

Q: What about the GR value ([12]; 1 µM) of the same cell line?
A: 0.0239 GR

Q: What about the GR value ([12]; 3.162 µM) of the same cell line?
A: -0.0117 GR

Q: And the GR value ([12]; 10 µM)?
A: -0.572 GR
